Reference: patent US20080176923A1, “Proline Derivatives Used as Pharmaceutical Active Ingredients for the Treatment of Tumors” (priority 2003, published 2008)
In brackets after ≈: the same amount, converted by molar mass. Read-outs that look alike come from different tables or passages of the source.

Experiments:
[1] = system: BxPC3 pancreas tumor cell line; test: tumor cell proliferation test (EZ4U tetrazolium), BxPC3; type: cell-based; conditions: for inhibition at 200 µg/mL / inhibition at 400 µg/mL / IC50: Homo sapiens; for inhibition at 200 µg/mL / inhibition at 400 µg/mL: BXPC-3, 96 h, read-out: inhibition of cellular proliferation
Protocol: (§1) The compounds of the invention were tested using the pancreas tumor cell lines MIYPaCa2 and BxPC3, the breast cancer cell lines MDA-MB-435 and BT20, as well as the colon cancer cell lines Colo205 and HT29. The cells were placed in culture medium (RPMI-1640 with 10% fetal calf serum and 4 mM glutamine) in 96-well microtiter plates to make 10,000 cells per well. The inventive components to be tested were diluted in microtiter plates according to the well-known procedure and incubated for 4 days under cell culture conditions (37° C., 5% CO2).
(§2) Following incubation, the proliferation was tested using a tetrazolium-based EZ4U kit from Biomedica (Vienna, Austria). The optical density (OD) of each well was determined by means of an ELISA Reader, and the control medium obtained was set to 100% (OD490 nm=0.5 to 1.5). The values in Table 1 are given in %, showing the inhibition of cellular proliferation, the concentration being 400 μg/ml (higher value) and 200 μg/ml (lower value).
(§3) In further tests, substances were dissolved in water, and their effect on the colon adenocarcinoma cell line Colo205 and pancreas adenocarcinoma cell line BxPC3 as targets was tested. The results obtained, in IC50 concentrations in μg/ml, are illustrated in Table 2.
(§4) Furthermore, (R)-(+)-α,α-diphenyl-2-pyrrolidinemethanol and (S)-(−)-α,α-diphenyl-2-pyrrolidinemethanol were tested. […] The results are given as IC50 (μg/ml).

[2] = system: Colo205 colon cancer cell line; test: tumor cell proliferation test (EZ4U tetrazolium), Colo205; type: cell-based; conditions: for inhibition at 200 µg/mL / inhibition at 400 µg/mL / IC50: Homo sapiens
Protocol: as §1, §2, §3
(§5) A proliferation test—as described above—with an initial dilution of 400 μg/ml was carried out, either alone or in combination with 400, 200 or 100 μg of CHP. The cell lines used are illustrated in Table 3. […] Frequently, the proliferation is increased, or the inhibition achieved with specific substances is lower when using combined agents. The effect of CHP alone is shown on the left in the table, below each specified cell line, for the highest concentration of CHP (400 μg/ml).
as §4

[3] = system: BT20 breast cancer cell line; test: tumor cell proliferation test (EZ4U tetrazolium), BT20; type: cell-based; conditions: Homo sapiens, BT-20, 96 h, 4 days, read-out: inhibition of cellular proliferation; for inhibition at 200 µg/mL: BT20, 200 μg/ml; for inhibition at 400 µg/mL: BT20, 400 μg/ml
Protocol: as §1, §2

[4] = system: SW620 colon cancer cell line; test: tumor cell proliferation test, SW620; type: cell-based; conditions: for inhibition at 400 µg/mL: Homo sapiens
Protocol: as §1, §2, §5

[5] = system: all 6 cell lines (MIA-PaCa2, Colo205, BxPC3, MDA-MB435, BT20, HT29); test: tumor cell proliferation test, mean value for all 6 cell lines; type: cell-based; conditions: read-out: inhibition, mean value±SEM for all 6 cell lines
Protocol: as §1, §2

[6] = system: MIA-PaCa2 pancreas tumor cell line; test: tumor cell proliferation test (EZ4U tetrazolium), MIA-PaCa2; type: cell-based; conditions: Homo sapiens; for inhibition at 200 µg/mL / inhibition at 400 µg/mL: MIA PaCa-2, 96 h, read-out: inhibition of cellular proliferation; for IC50: MIA PaCa-2
Protocol: as §1, §2, §4

[7] = system: T47D breast cancer cell line; test: tumor cell proliferation test, T47D; type: cell-based; conditions: for inhibition at 400 µg/mL / IC50: Homo sapiens
Protocol: as §1, §2, §5, §4

[8] = system: HT29 colon cancer cell line; test: tumor cell proliferation test (EZ4U tetrazolium), HT29; type: cell-based; conditions: Homo sapiens, HT-29, 96 h, 4 days, read-out: inhibition of cellular proliferation; for inhibition at 200 µg/mL: HT29, 200 μg/ml; for inhibition at 400 µg/mL: HT29, 400 μg/ml
Protocol: as §1, §2

[9] = repeated oral administration to rats over 28 days, LC/MS of serum and urine; type: in vivo; conditions: repeated oral administration over 28 days
Protocol: cis-4-Hydroxy-L-proline was repeatedly administered orally to rats over a period of 28 days. cis-4-Hydroxy-L-proline was analyzed in serum and urine samples using the LC/MS technique.

[10] = system: MDA-MB435 breast cancer cell line; test: tumor cell proliferation test (EZ4U tetrazolium), MDA-MB435; type: cell-based; conditions: Homo sapiens, MDA-MB-435, 96 h, 4 days, read-out: inhibition of cellular proliferation; for inhibition at 200 µg/mL: MDA-MB435, 200 μg/ml; for inhibition at 400 µg/mL: MDA-MB435, 400 μg/ml
Protocol: as §1, §2

[11] = system: Pana -1 pancreas cancer; test: tumor cell proliferation test, Pana -1; type: cell-based
Protocol: as §1, §2, §4

[12] = COLO 205, 96 h, read-out: inhibition of cellular proliferation
[13] = COLO 205, 96 h, Colo205, 200 μg/ml, 4 days, read-out: inhibition of cellular proliferation
[14] = COLO 205, 96 h, Colo205, 400 μg/ml, 4 days, read-out: inhibition of cellular proliferation
[15] = BXPC-3, substances dissolved in water, read-out: IC50 BxPC3
[16] = COLO 205, substances dissolved in water, read-out: IC50 Colo205

Row | Compound | inhibition at 200 µg/mL [3] | inhibition at 400 µg/mL [3] | inhibition at 200 µg/mL [8] | inhibition at 400 µg/mL [8] | inhibition at 200 µg/mL [10] | inhibition at 400 µg/mL [10] | inhibition at 400 µg/mL ([5]; 400 μg/ml) | inhibition at 200 µg/mL ([6]; MIA-PaCa2, 200 μg/ml, 4 days) | inhibition at 400 µg/mL ([6]; MIA-PaCa2, 400 μg/ml, 4 days) | inhibition at 200 µg/mL ([1]; BxPC3, 200 μg/ml, 4 days) | inhibition at 400 µg/mL ([1]; BxPC3, 400 μg/ml, 4 days) | inhibition at 200 µg/mL [2, 13] | inhibition at 400 µg/mL [2, 14] | IC50 [1, 15] | IC50 [2, 16] | further results
1 | 4-hydroxy-1,1-dimethylproline isobutyl ester iodide [Substance A2-01] | – | – | – | – | – | – | – | – | – | – | – | – | – | – | – | IC50 BxPC3 ([1]; substances dissolved in water): 50 µg/mL; IC50 Colo205 ([2]; substances dissolved in water): >400 µg/mL
2 | O=C(O)[C@@H]1C[C@H](O)CN1 [CHP, cis-4-hydroxy-L-proline, reference compound] | 6.5% | 10.6% | 1.7% | 15.7% | 19.9% | 39.2% | – | – | – | – | – | – | – | – | – | inhibition at 400 µg/mL ([4]; SW-620, CHP 400 μg/ml alone, read-out: effect of CHP alone (% inhibition of proliferation, minus sign)): 14%; inhibition at 400 µg/mL [5]: 40 ± 10.1%; inhibition at 200 µg/mL [6]: 34.5%; inhibition at 400 µg/mL [6]: 51.3%; inhibition at 200 µg/mL [1]: 27.8%; inhibition at 400 µg/mL [1]: 44.5%; IC50 ([1]; BXPC-3, read-out: IC50 BxPC3): 400 µg/mL (≈ 3050 µM); inhibition at 400 µg/mL ([7]; read-out: effect of CHP alone (% inhibition of proliferation, minus sign)): 17.4%; level of cis-4-hydroxy-L-proline in serum or urine [9]: rapidly dropped; isomers and metabolites in the investigated samples (biotransformation) ([9]; serum and urine): detection of isomers and metabolites; inhibition at 200 µg/mL [2, 12]: 60%; inhibition at 400 µg/mL [2, 12]: 78.2%; IC50 ([2]; COLO 205, read-out: IC50 Colo205): 90 µg/mL; inhibition at 400 µg/mL ([2]; COLO 205, read-out: effect of CHP alone (% inhibition of proliferation, minus sign)): 46%
3 | OC(c1ccccc1)(c1ccccc1)[C@H]1CCCN1 [Substance 231.01, (R)-(+)-α,α-diphenyl-2-pyrrolidinemethanol] | – | – | – | – | – | – | – | – | – | – | – | – | – | – | – | IC50 [11]: 80 µg/mL (≈ 316 µM); IC50 [6]: 50 µg/mL (≈ 197 µM); IC50 ([1]; BXPC-3): 60 µg/mL (≈ 237 µM); IC50 [7]: 130 µg/mL; IC50 ([2]; COLO 205): 45 µg/mL
4 | OC(c1ccccc1)(c1ccccc1)[C@@H]1CCCN1 [Substance 231.02, (S)-(−)-α,α-diphenyl-2-pyrrolidinemethanol] | – | – | – | – | – | – | – | – | – | – | – | – | – | – | – | IC50 [11]: 55 µg/mL (≈ 217 µM); IC50 [6]: 50 µg/mL (≈ 197 µM); IC50 ([1]; BXPC-3): 50 µg/mL (≈ 197 µM); IC50 [7]: 190 µg/mL; IC50 ([2]; COLO 205): 45 µg/mL
5 | CN1CC(O)C[C@H]1C(=O)O (stereo partly drawn) [Substance A0.21, 4-hydroxy-1-methylproline] | 18.3% | 14.9% | 4.8% | 4.7% | 26.9% | 23.2% | 16.3 ± 2.7% | 21.1% | 22.8% | 21.9% | 16.2% | 21.1% | 16.3% | – | – | % inhibition of proliferation (minus signs) ([4]; A0.21 100 alone (Con)): −5.8%; % inhibition of proliferation (minus signs) ([4]; A0.21 200 alone (Con)): −6.3%; inhibition at 400 µg/mL ([4]; SW-620, A0.21 400 μg/ml alone (Con), read-out: % inhibition of proliferation (minus signs)): 5.2%; % inhibition of proliferation (minus signs) ([7]; A0.21 100 alone (Con)): −1.8%; % inhibition of proliferation (minus signs) ([7]; A0.21 200 alone (Con)): −1.2%; inhibition at 400 µg/mL ([7]; A0.21 400 μg/ml alone (Con), read-out: % inhibition of proliferation (minus signs)): 0.4%; % inhibition of proliferation (minus signs) ([2]; Colo205, A0.21 100 alone (Con)): −3.5%; % inhibition of proliferation (minus signs) ([2]; Colo205, A0.21 200 alone (Con)): −4.0%; inhibition at 400 µg/mL ([2]; COLO 205, Colo205, A0.21 400 μg/ml alone (Con), read-out: % inhibition of proliferation (minus signs)): 8.2%
6 | CCOC(=O)C1CC(O)C[N+]1(C)C (stereo not drawn) [Substance A1-01, 4-hydroxy-1,1-dimethylproline ethyl ester iodide] | – | – | – | – | – | – | – | – | – | – | – | – | – | 70 µg/mL | > 400 µg/mL | –
7 | CCOC(=O)[C@@H]1CC(O)CN1C (stereo partly drawn) [Substance A1.21, 4-hydroxy-1-methylproline ethyl ester] | 22.2% | 80.1% | 7.3% | 0.5% | 15.6% | 53.5% | 36.5 ± 11.4% | 7.4% | 38.8% | 25% | 13.4% | 23.7% | 32.7% | – | – | –
8 | CCOC(=O)[C@@H]1CC(OC(=O)Nc2ccccc2)CN1C (stereo partly drawn) [Substance A1.23, 1-methyl-4-phenylaminocarbonyloxyproline ethyl ester] | 4.4% | 1.3% | 8.5% | 1.9% | 8.7% | 4.5% | < 8% | 16% | 8.3% | 17.8% | 0% | 17.2% | 7.3% | – | – | –
9 | CC(C)COC(=O)C1CC(O)CN1 [Substance A2, cis-hydroxy-L-proline isobutyl ester] | – | – | – | – | – | – | – | – | – | – | – | – | – | 15 µg/mL (≈ 80.1 µM) | 18 µg/mL | melting point: 139 °C
10 | CC(C)COC(=O)[C@@H]1CC(O)CN1C1CCCCC1 (stereo partly drawn) [Substance A2-03, 4-hydroxy-1-cyclohexylproline isobutyl ester] | – | – | – | – | – | – | – | – | – | – | – | – | – | 50 µg/mL (≈ 186 µM) | 50 µg/mL | –
11 | Br.CC(C)COC(=O)[C@@H]1CC(O)CN1C(c1ccccc1)c1ccccc1 (stereo partly drawn) [Substance A2-04, 4-hydroxy-1-diphenylmethylproline isobutyl ester hydrobromide] | – | – | – | – | – | – | – | – | – | – | – | – | – | 12 µg/mL | 6.2 µg/mL | –
12 | CC(C)COC(=O)[C@@H]1CC(O)CN1C (stereo partly drawn) [Substance A2.21, 4-hydroxy-1-methylproline isobutyl ester] | 5.2% | 3.9% | 4.1% | 1.3% | 4.5% | 3.1% | < 8% | 4.5% | 23.9% | 18.2% | 4.9% | 14.1% | 10% | – | – | –
13 | CC(C)COC(=O)[C@@H]1CC(OC(=O)Nc2ccccc2)CN1C (stereo partly drawn) [Substance A2.23, 1-methyl-4-phenylaminocarbonyloxyproline isobutyl ester] | 0% | 0% | -5% | -5.3% | 5.5% | 8.6% | < 8% | 14.2% | 0.3% | 15.4% | 2.1% | 19.2% | 14.1% | – | – | –
14 | CCOC(=O)C1CC(O)CN1 [Substance A-1, cis-hydroxy-L-proline ethyl ester] | – | – | – | – | – | – | – | – | – | – | – | – | – | 5 µg/mL (≈ 31.4 µM) | 50 µg/mL | –
